# From patent publication US20260216219A1, “MODULATOR FOR PROMOTING BINDING OF BUTYROPHILIN 3A1/2A1” (priority 2023, published 2026)
# Tested on: MIAPaCa/FG2 cells
# Assay: EC50 assay of small molecule activated γδ T cells to kill tumor cells (3-fold dilution, 0.05-100 nM)
# Format: cell-based
# Conditions: T-cell, γδT cells co-cultured with MIAPaCa/FG2 cells, E:T=2:1, 20 hours, compound diluted 3-fold, chemiluminescence, read-out: killing data of MIAPaCa/FG2 cells (EC50)
# Experimental: γδT cells and MIAPaCa/FG2 tumor cell lines were expanded and cultured in vitro. MIAPaCa/FG2 cells were digested, and the cells were counted and resuspended in DMEM complete medium, the density of the cell suspension was adjusted and added into a 96-well plate at 5×10^3 cells/50 μL/well for overnight incubation. On the next day, the test compound and the control compound were diluted at a 3-fold ratio with DMSO, and 4 μL of the diluted compound was added to 96 μL of culture medium for 25-fold dilution. 5 μL of 25-fold diluted compound was transferred to the corresponding well which had been plated with tumor cells, and the actual detection concentration was in the range of 0.05-100 nM. γδT cells were resuspended in γδT complete medium, and the density of the cell suspension was adjusted according to the effector-target ratio of E:T=2:1, and then the cell was added to the corresponding well at 1×10^4 cells/100 μL/well. After co-culture at 37° C., 5% CO2 for 20 hours, the cells were centrifuged. The supernatant was removed, and 50 μL of cell lysate containing […] substrate was added to each well. After standing for 18 minutes in the dark, the signal of chemiluminescence was detected. The EC50 value was calculated by four-parameter fitting, with the corresponding signal value of the well with only tumor cells as the minimum killing value, and the corresponding value of the well without tumor cells as the maximum killing value. The killing data of MIAPaCa/FG2 cells are as follows: […]
row,Structure (SMILES),EC50 [nM]
1,"C/C(=C\CCP(=O)(N[C@@H](C)C(=O)OC(C)C)Oc1ccccc1)CO (stereo partly drawn) [Control compound 1, Isopropyl (((E)-5-hydroxy-4-methylpent-3-en-1-yl)(phenoxy)phosphoryl)-L-alaninate, reference compound]",0.53

# Same assay, conditions: γδT cells co-cultured with MIAPaCa/FG2 cells, E:T=2:1, 20 hours, compound diluted 3-fold, chemiluminescence, read-out: killing data of MIAPaCa/FG2 cells (EC50)
row,Structure (SMILES),EC50 [nM]
1,C/C(=C\CCP(=O)(N[C@@H](C)C(=O)OC(C)C)Oc1ccc(C[C@H](NCCCc2ccccc2)C(=O)O[C@@H]2CCOC2)cc1)CO (stereo partly drawn) [Compound 8],0.052
2,C/C(=C\CCP(=O)(N[C@@H](C)C(=O)OC(C)C)Oc1ccc(C[C@H](NCCCc2ccccc2)C(=O)O[C@H]2CCOC2)cc1)CO (stereo partly drawn) [Compound 9],0.012
3,"C/C(=C\CCP(=O)(N[C@@H](C)C(=O)OC(C)C)Oc1ccc(C[C@H](NCCc2ccccc2)C(=O)O[C@H]2CCOC2)cc1)CO (stereo partly drawn) [Compound 11, (S)-Tetrahydrofuran-3-yl (2S)-3-(4-((((E)-5-hydroxy-4-methylpent-3-en-1-yl)(((S)-1-isopropoxy-1-oxopropan-2-yl)amino)phosphor yl)oxy)phenyl)-2-(phenethylamino)propionate]",41.7
4,"C/C(=C\CCP(=O)(N[C@@H](C)C(=O)OCC(C)C)Oc1ccc(C[C@H](NCCCc2ccccc2)C(=O)O[C@H]2CCOC2)cc1)CO (stereo partly drawn) [Compound 12, (S)-tetrahydrofuran-3-yl (2S)-3-(4-((((E)-5-hydroxy-4-methylpent-3-en-1-yl)(((S)-1-isobutoxy-1-oxopropan-2-yl)amino)phosphoryl)oxy)phenyl)-2-((3-phenylpropyl)amino)propionate]",0.011
5,"CCC(CC)OC(=O)[C@H](C)NP(=O)(CC/C=C(\C)CO)Oc1ccc(C[C@H](NCCCc2ccccc2)C(=O)O[C@H]2CCOC2)cc1 (stereo partly drawn) [Compound 13, (S)-tetrahydrofuran-3-yl (2S)-3-(4-((((E)-5-hydroxy-4-methylpent-3-en-1-yl)(((S)-1-oxo-1-(pentan-3-yloxy)propan-2-yl)amino)phosphoryl)oxy)phenyl)-2-((3-phenylpropyl)amino)propionate]",0.42
6,C/C(=C\CC[P@@](=O)(N[C@@H](C)C(=O)NC(C)C)Oc1ccc(C[C@H](NCCCc2ccccc2)C(=O)O[C@H]2CCOC2)cc1)CO [Compound 14],0.016
7,C/C(=C\CC[P@](=O)(N[C@@H](C)C(=O)NC(C)C)Oc1ccc(C[C@H](NCCCc2ccccc2)C(=O)O[C@H]2CCOC2)cc1)CO [Compound 15],1.6
8,"C/C(=C\CCP(=O)(N[C@@H](C)C(=O)OCC(C)C)Oc1ccc(C[C@H](NCCCc2ccccc2)C(=O)NC(C)C)cc1)CO (stereo partly drawn) [Compound 16, Isobutyl (((E)-5-hydroxy-4-methylpent-3-en-1-yl)(4-((S)-3-(isopropylamino)-3-oxo-2-((3-phenylpropyl)amino)propyl)phenoxy)phosphoryl)-L-alaninate]",0.011

# Tested on: MIAPaCa/FG2 cells
# Assay: EC50 assay of small molecule activated γδ T cells to kill tumor cells (10-fold dilution, 10^-12-10^-5 M)
# Format: cell-based
# Conditions: Homo sapiens, MIA PaCa-2, 20 h, read-out: MIApaca killing (nM)
# Experimental: γδT cells and MIAPaCa/FG2 tumor cell lines were expanded and cultured in vitro. The MIAPaCa/FG2 cells were digested, and the cells were counted and resuspended in DMEM complete medium, the density of the cell suspension was adjusted and added into a 96-well plate at 5×10^3 cells/50 μL/well for overnight incubation. On the next day, the test compound and the control compound were diluted at a 10-fold ratio with γδT complete medium. 50 μL of diluted compound was transferred to the corresponding wells which had been plated with tumor cells, and the actual detection concentration was in the range of 10^−12-10^−5 M. γδT cells were resuspended in γδT complete medium, and the density of the cell suspension was adjusted according to the effector-target ratio of E:T=2:1, and then the cells were added to the corresponding wells at 1×10^4 cells/50 μL/well. After co-culture at 37° C., 5% CO2 for 20 hours, the cells were centrifuged. The supernatant was removed, and 50 μL of cell lysate containing luciferin substrate was added to each well. After standing for 18 minutes in the dark, the signal of chemiluminescence was detected. The EC50 value was calculated by four-parameter fitting, with the corresponding signal value of the well with only tumor cells as the minimum killing value, and the corresponding signal value of the well without tumor cells as the maximum killing value. The killing data of MIAPaCa/FG2 cells are as follows: […]
row,Structure (SMILES),EC50 [nM]
1,"C/C(=C\CCP(=O)(N[C@@H](C)C(=O)OC(C)C)Oc1ccccc1)CO (stereo partly drawn) [Control compound 1, Isopropyl (((E)-5-hydroxy-4-methylpent-3-en-1-yl)(phenoxy)phosphoryl)-L-alaninate, reference compound]",0.57

# Same assay, conditions: Homo sapiens, MIA PaCa-2; γδT cells co-cultured with MIAPaCa/FG2 cells, E:T=2:1, 20 hours; compound diluted 10-fold, 10^-12-10^-5 M; chemiluminescence; read-out: MIApaca killing
row,Structure (SMILES),EC50 [nM]
1,CC(C)OC(=O)[C@H](C)NP(=O)(OC/C=C(/CO)C(F)(F)F)Oc1ccc(C[C@H](NC(=O)OCc2ccccc2)C(=O)OC2CCCC2)cc1 (stereo partly drawn) [Compound 6],11.4
2,CC(C)OC(=O)[C@H](Cc1ccc(OP(=O)(N[C@@H](C)C(=O)OC2CCCC2)OC/C=C(/CO)C(F)(F)F)cc1)NC(=O)OCc1ccccc1 (stereo partly drawn) [Compound 7],9.6

# Same assay, conditions: read-out: MIApaca killing; γδT cells co-cultured with MIAPaCa/FG2 cells, E:T=2:1, 20 hours; compound diluted 10-fold, 10^-12-10^-5 M; chemiluminescence
row,Structure (SMILES),EC50 [nM]
1,"C/C(=C\CCP(=O)(N[C@@H](C)C(=O)OC(C)C)Oc1ccc(C[C@H](NC(=O)OCc2ccccc2)C(=O)OC2CCCC2)cc1)CO (stereo partly drawn) [Compound 1, Cyclopentyl (2S)-2-(benzyloxycarbonylamino)-3-[4-[[(E)-5-hydroxy-4-methyl-pent-3-enyl]-[[(1S)-2-isopropoxy-1-methyl-2-oxo-ethyl]amino]phosphoryl]oxyphenyl]propionate]",0.1
2,"C/C(=C\CCP(=O)(N[C@@H](C)C(=O)OC(C)C)Oc1ccc(C[C@H](NC(=O)OCc2ccccc2)C(=O)O[C@H]2CCOC2)cc1)CO (stereo partly drawn) [Compound 2, (S)-tetrahydrofuran-3-yl (2S)-2-(benzyloxycarbonylamino)-3-[4-[[(E)-5-hydroxy-4-methyl-pent-3-enyl]-[[(1S)-2-isopropoxy-1-methyl-2-oxo-ethyl]amino]phosphoryl]oxyphenyl]propionate]",0.12
3,"C/C(=C\CCP(=O)(N[C@@H](C)C(=O)OC(C)C)Oc1ccc(C[C@H](NC(=O)OCc2ccccc2)C(=O)O[C@@H]2CCOC2)cc1)CO (stereo partly drawn) [Compound 3, (R)-tetrahydrofuran-3-yl (2S)-2-(benzyloxycarbonylamino)-3-[4-[[(E)-5-hydroxy-4-methyl-pent-3-enyl]-[[(1S)-2-isopropoxy-1-methyl-2-oxo-ethyl]amino]phosphoryl]oxyphenyl]propionate]",0.17
4,"C/C(=C\CCP(=O)(N[C@@H](C)C(=O)OC1CCCC1)Oc1ccc(C[C@H](NC(=O)OCc2ccccc2)C(=O)OC(C)C)cc1)CO (stereo partly drawn) [Compound 4, Isopropyl (2S)-2-(benzyloxycarbonylamino)-3-[4-[[(E)-5-hydroxy-4-methyl-pent-3-enyl]-[[(1S)-2-isocyclopentyloxy-1-methyl-2-oxo-ethyl]amino]phosphoryl]oxyphenyl]propionate]",0.07
5,"C/C(=C\CCP(=O)(N[C@@H](C)C(=O)OC(C)C)Oc1ccc(C[C@H](NC(=O)CCc2ccccc2)C(=O)OC2CCCC2)cc1)CO (stereo partly drawn) [Compound 5, Cyclopentyl (2S)-2-(3-phenylpropionylamino)-3-[4-[[(E)-5-hydroxy-4-methyl-pent-3-enyl]-[[(1S)-2-isopropoxy-1-methyl-2-oxo-ethyl]amino]phosphoryl]oxyphenyl]propionate]",0.06

# Same assay, conditions: γδT cells co-cultured with MIAPaCa/FG2 cells, E:T=2:1, 20 hours; compound diluted 10-fold, 10^-12-10^-5 M; chemiluminescence; read-out: MIApaca killing
row,Structure (SMILES),EC50 [nM]
1,"C/C(=C\COP(=O)(O)OP(=O)(O)O)CO [HMBPP control, reference compound]",2.1
